Consider three compounds from EP4799646A1, “COMPOSITION AND METHOD FOR INCREASING BIOAVAILABILITY OF ACTIVE INGREDIENT” (Everfront Biotech Inc., priority 2023, dated 2025).

Converted amounts (≈) assume the structure as drawn. Like-named read-outs stand apart in the source and are kept apart here.

Data set [1] is described as follows: Appearance (phase separation) of compositions after preparation; solubility of BP in sesame oil. Type of data set: physicochemical. To be noted: concluded from absence of phase separation in Compositions 1 to 4. The protocol: In a glass bottle, components were mixed with the dosage ratios shown in Table 1 to provide a mixture, and the mixture was rapidly stirred with a magnetic stirrer for 20 minutes to form a homogeneous liquid, thereby respectively preparing Compositions 1 to 4. After removing the magnetic stirrer, the glass bottle was tightly sealed and its appearance was observed and photographed, the results are shown in FIG. 1. Table 1: Volume Percentages of Composition in Compositions 1 to 4.

Data set [2] deals with pancreatic cancer cell lines Mia-PaCa2. In words: MTT assay, IC50 against pancreatic cancer cells (cytotoxicity study II). Type of data set: cell-based. To be noted: Homo sapiens. The protocol:
The culture medium in each well of the cell culture plates was removed, and MTT reagent was added (to reach a final concentration of 0.5 mg/mL in each well). The plates were then placed in a 37°C, 5% CO2 incubator for 2 to 4 hours to form purple needle-like formazan crystals. Subsequently, the solution was aspirated, and 500 µL of dimethyl sulfoxide (DMSO) was added to each well. After shaking with a shaker for 5 to 10 minutes to completely dissolve the purple crystals, the absorbance at a wavelength of 570 or 595 nm was measured using an ELISA reader. The survival rate of the cells was calculated based on the absorbance, with the blank group as the baseline (the survival rate of the blank group was set to 100%). The data of the experimental group serum collected 2 hours after oral administration of the soft capsules are shown in FIG. 7; the data of the experimental group serum collected at 1, 4, 8, or 24 hours are shown in FIG. 8.
Cell cultures in this example were all conducted in an environment of 95% relative humidity, 5% CO2, and 37°C.
Pancreatic cancer cell lines Mia-PaCa2 were grouped and respectively cultured in 96-well cell culture plates for 24 hours using the following culture media: • 1. "Z-BP" Group: Mia-PaCa2 cell culture medium supplemented with Z-BP. • 2. […]
On the technique in general: Tetrazolium assays rely on reduction of a dye to a coloured formazan, in cell work by metabolically active cells.

Turning to `CCCC=C1OC(=O)c2ccccc21` [BP, n-butylidenephthalide], the “solubility in sesame oil” value in data set [1] is listed as “good solubility”.
What is called IC50 is the concentration that inhibits the measured activity by half. For `CCC/C=C1\OC(=O)C2=C1CCC=C2` [LG, Ligustilide], the IC50 in data set [2] (MIA PaCa-2, Mia-PaCa2 cells, 24 hours, MTT, oil groups: active mixed with oil in equal proportions, read-out: IC50) was found to be 44.1 µg/mL (≈ 232 µM).
Take `CCC/C=C1\OC(=O)c2ccccc21` [Z-BP, (Z)-n-butylidenephthalide]: in data set [2] (MIA PaCa-2, 24 h), the IC50 was 63.8 µg/mL (≈ 339 µM).
